Common to all, as to format: biochemical
In one assay the target is PI3Kγ (Homo sapiens, UniProt P48736). Description: In vitro inhibition of PI3Kγ. As to conditions: Table 10B, inhibitory activity, unit inferred; read-out: PI3Kγ.
A further assay deals with PI3Kα (Homo sapiens, UniProt P42336). Briefly: In vitro inhibition of PI3Kα. Particulars: Table 10B, inhibitory activity, unit inferred; read-out: PI3Kα.
For the next assay, the target named is PI3Kδ (Homo sapiens, UniProt O00329). Description: In vitro inhibition of PI3Kδ. Particulars: Table 10B, inhibitory activity, unit inferred; read-out: PI3Kδ.
Sequence of PI3Kδ (O00329 whole entry, species assumed): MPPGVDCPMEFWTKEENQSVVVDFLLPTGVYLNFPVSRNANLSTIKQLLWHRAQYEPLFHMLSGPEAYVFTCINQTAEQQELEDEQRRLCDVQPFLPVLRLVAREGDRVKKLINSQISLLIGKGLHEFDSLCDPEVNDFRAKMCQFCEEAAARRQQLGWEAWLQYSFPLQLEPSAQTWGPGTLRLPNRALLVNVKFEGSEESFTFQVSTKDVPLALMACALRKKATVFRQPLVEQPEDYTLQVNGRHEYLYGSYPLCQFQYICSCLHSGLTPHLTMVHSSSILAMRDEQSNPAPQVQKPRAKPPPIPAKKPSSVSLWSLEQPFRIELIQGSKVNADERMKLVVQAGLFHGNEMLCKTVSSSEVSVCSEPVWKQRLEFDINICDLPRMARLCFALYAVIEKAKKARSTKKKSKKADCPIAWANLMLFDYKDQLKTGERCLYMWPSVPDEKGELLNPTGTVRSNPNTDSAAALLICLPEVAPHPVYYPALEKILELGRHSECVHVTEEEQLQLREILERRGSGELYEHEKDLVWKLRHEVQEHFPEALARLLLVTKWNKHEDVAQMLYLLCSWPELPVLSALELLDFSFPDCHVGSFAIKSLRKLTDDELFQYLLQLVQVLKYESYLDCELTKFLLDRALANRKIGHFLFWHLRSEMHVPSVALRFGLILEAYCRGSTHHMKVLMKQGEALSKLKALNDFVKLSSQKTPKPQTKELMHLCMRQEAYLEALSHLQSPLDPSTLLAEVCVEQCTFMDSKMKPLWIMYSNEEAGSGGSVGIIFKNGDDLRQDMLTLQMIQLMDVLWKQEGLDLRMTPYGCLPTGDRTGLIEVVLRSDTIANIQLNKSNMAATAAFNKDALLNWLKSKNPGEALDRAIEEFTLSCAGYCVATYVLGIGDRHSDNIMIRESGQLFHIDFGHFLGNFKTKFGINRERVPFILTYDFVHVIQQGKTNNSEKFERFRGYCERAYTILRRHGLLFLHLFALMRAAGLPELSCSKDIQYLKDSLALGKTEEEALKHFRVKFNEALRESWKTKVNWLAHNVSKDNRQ
Sequence of PI3Kδ (P27986 whole entry partner, species assumed): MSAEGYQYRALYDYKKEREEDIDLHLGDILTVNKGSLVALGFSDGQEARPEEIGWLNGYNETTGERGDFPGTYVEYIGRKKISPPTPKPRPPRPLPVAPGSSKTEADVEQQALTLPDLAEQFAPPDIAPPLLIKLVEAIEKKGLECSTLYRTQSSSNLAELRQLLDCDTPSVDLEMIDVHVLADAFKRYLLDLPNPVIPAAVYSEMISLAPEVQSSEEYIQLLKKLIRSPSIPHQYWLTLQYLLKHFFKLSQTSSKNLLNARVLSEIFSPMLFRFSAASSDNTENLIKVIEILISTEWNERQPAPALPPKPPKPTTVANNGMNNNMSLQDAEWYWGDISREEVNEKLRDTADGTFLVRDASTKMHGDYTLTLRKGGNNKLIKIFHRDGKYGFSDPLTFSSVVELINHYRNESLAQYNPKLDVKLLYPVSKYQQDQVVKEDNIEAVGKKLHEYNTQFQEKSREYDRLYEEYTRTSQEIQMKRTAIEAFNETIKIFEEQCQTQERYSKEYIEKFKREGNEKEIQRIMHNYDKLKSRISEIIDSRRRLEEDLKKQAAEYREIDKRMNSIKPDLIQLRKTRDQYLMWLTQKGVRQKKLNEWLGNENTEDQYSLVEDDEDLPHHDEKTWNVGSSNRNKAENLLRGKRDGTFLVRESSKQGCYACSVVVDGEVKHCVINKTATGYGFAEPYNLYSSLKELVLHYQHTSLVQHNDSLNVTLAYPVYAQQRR
A further assay deals with mTOR (Homo sapiens, UniProt P42345). Description: In vitro inhibition of mTOR. As to conditions: Table 10B, inhibitory activity, unit inferred.
For another assay, the target named is PI3Kβ (Homo sapiens, UniProt P42338). Description: In vitro inhibition of PI3Kβ. Particulars: Table 10B, inhibitory activity, unit inferred; read-out: PI3Kβ.
Sequence of PI3Kβ (P42338 whole entry, species assumed): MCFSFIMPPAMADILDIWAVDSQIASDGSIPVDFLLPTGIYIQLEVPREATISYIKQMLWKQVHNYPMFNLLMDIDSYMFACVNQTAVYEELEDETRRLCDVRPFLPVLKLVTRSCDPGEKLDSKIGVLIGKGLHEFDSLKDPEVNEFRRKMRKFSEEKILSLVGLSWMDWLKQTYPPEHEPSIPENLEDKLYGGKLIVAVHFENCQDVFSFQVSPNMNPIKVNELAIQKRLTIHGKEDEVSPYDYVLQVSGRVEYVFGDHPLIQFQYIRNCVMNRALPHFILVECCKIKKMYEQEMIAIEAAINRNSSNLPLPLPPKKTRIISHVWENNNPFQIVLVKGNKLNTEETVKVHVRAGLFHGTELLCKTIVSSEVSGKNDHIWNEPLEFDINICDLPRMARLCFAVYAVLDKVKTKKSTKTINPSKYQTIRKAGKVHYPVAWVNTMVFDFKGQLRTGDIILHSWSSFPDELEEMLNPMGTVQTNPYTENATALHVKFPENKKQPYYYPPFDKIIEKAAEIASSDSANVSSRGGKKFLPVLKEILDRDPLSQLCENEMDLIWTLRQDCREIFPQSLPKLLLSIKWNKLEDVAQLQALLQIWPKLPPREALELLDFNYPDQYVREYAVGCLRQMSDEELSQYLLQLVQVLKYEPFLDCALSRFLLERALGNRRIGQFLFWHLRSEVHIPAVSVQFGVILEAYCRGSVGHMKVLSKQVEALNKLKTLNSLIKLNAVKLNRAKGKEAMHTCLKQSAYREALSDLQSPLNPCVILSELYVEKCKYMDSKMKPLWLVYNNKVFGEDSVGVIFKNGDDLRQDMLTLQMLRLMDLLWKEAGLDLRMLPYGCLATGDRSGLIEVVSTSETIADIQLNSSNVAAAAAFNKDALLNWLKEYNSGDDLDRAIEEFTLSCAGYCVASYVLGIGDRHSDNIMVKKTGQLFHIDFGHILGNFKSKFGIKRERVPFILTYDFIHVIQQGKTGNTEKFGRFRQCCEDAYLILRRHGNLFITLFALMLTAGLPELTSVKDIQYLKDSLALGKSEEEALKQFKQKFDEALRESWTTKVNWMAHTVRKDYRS
Sequence of PI3Kβ (P27986 whole entry partner, species assumed): as the sequence (P27986 whole entry partner, species assumed) above

Sequence of PI3Kγ (P48736 whole entry, species assumed): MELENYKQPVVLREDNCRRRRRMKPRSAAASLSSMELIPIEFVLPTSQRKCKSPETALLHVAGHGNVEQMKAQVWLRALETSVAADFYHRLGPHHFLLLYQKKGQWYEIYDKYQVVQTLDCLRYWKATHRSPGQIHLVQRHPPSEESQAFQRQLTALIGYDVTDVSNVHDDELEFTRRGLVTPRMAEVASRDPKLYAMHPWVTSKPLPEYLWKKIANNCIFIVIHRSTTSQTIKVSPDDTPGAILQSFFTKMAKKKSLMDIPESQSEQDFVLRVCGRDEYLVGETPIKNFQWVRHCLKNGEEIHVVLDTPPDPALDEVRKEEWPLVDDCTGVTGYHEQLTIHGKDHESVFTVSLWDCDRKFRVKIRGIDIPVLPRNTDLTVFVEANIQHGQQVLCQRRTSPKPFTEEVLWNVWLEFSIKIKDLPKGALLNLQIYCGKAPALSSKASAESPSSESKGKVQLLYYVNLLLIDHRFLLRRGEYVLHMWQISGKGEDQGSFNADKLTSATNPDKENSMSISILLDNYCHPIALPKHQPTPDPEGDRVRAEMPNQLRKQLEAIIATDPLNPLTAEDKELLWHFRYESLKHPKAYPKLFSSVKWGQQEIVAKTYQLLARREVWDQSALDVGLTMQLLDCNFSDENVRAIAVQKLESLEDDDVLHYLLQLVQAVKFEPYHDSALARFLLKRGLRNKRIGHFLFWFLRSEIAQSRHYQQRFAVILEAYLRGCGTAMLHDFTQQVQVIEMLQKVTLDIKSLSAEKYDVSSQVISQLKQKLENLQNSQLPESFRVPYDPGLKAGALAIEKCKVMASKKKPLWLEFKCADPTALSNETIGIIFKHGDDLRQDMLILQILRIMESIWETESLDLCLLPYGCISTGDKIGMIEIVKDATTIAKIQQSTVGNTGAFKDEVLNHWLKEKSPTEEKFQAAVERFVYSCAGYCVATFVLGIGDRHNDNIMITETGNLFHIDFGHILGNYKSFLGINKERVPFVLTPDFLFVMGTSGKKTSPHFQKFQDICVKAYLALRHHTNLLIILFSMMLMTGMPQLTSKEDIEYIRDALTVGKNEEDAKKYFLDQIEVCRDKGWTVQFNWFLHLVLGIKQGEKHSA
Sequence of PI3Kα (P42336 whole entry, species assumed): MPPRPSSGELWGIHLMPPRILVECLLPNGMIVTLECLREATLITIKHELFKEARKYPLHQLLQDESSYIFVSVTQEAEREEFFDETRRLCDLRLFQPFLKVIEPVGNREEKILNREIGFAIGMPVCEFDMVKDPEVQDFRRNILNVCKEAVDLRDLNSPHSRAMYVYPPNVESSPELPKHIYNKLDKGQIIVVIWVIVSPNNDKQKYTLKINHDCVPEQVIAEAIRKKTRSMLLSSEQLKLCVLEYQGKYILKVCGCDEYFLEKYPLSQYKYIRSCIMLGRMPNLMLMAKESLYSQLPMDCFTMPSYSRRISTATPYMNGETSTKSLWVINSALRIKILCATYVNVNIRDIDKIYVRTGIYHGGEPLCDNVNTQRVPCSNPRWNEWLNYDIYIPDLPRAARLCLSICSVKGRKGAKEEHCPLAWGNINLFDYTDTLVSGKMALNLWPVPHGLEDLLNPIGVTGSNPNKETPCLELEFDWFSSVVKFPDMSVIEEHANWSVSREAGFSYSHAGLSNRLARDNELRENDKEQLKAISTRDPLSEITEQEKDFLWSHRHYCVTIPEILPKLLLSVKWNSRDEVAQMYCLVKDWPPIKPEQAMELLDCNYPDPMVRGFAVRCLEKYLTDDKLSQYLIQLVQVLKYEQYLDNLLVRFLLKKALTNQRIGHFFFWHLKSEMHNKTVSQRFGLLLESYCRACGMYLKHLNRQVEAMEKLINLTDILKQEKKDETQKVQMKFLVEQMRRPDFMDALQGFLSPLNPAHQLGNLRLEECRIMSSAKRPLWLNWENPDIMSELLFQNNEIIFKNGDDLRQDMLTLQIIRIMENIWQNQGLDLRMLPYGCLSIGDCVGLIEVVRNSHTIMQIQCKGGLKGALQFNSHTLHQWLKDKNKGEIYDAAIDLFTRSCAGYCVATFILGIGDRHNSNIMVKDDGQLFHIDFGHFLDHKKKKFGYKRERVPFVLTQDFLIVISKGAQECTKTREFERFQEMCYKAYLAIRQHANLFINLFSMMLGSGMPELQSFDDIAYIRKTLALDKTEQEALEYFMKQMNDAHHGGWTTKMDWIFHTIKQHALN
Sequence of PI3Kα (P27986 whole entry partner, species assumed): as the sequence (P27986 whole entry partner, species assumed) above

As to `CN(C)C1CCN(C(=O)c2ccc(NC(=O)Nc3ccc(-c4nc(N5CCOCC5)nc(N5CCN(C(=O)CCOCCOCCOCCONC(=O)c6ccc(F)c(F)c6Nc6ccc(I)cc6F)CC5)n4)cc3)cc2)CC1` [ST-185], the IC50 turned out to be 0.325 ± 0.078 µM on PI3Kγ; 0.0423 ± 0.004 µM on PI3Kα; 0.0553 ± 0.0039 µM at PI3Kδ; 0.0504 ± 0.0042 µM on mTOR; 1.62 ± 0.442 µM on PI3Kβ.

(Values after patent publication US11311624B2, “Inhibitors of MEK/PI3K, JAK/MEK, JAK/PI3K/mTOR and MEK/PI3K/mTOR biological pathways and methods for improving lymphatic uptake, bioavailability, and solubility of therapeutic compounds” (THE REGENTS OF THE UNIVERSITY OF MICHIGAN, priority 2017, dated 2022).)
